Assay results: the Kinase Knowledgebase extract (Sharma et al. 2016)

The compounds below were run against PIK3CD (Human) (UniProt O00329) (assay: Assessment of PIK3CD Kinase Activity (Scintillation Proximity Assay)).
Chain of PIK3CD (Human) (O00329 whole entry, looked up): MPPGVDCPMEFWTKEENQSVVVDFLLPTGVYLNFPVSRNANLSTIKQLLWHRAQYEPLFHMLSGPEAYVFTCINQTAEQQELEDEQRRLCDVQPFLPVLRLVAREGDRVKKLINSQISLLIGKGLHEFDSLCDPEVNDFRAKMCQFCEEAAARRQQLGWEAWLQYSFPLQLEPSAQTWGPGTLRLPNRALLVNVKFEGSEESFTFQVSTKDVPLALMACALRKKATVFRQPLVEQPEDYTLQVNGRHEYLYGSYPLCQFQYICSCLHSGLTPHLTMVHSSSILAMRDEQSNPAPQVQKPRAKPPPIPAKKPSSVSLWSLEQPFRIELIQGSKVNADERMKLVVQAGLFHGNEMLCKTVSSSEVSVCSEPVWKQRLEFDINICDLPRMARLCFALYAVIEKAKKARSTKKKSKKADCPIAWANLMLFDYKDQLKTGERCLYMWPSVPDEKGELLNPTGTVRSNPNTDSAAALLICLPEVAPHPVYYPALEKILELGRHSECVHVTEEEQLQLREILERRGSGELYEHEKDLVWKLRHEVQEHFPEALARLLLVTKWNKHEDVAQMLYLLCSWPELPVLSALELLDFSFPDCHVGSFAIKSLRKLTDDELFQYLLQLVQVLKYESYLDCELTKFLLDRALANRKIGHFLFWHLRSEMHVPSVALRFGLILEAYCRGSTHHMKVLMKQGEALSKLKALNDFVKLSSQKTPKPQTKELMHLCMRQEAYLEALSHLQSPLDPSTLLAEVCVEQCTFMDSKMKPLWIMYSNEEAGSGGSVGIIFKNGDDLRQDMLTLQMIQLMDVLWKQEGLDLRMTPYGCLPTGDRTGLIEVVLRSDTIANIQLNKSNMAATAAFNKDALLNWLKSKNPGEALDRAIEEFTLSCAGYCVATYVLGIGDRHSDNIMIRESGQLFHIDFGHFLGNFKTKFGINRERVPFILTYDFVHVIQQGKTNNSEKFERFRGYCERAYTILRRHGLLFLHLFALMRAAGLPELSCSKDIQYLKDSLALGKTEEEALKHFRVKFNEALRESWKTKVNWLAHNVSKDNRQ

Structure (SMILES)	IC50 [nM]
COc1c(C(C)n2nc(C)c3c(N)ncnc32)cc(Cl)c(C)c1C1CN(C[C@@H](O)C(F)(F)F)C1 (some centres not stated)	≤ 10
CCOc1c(C(C)n2nc(C#C[C@H](C)O)c3c(N)ncnc32)cc(Cl)c(C)c1-c1ccc(C(=O)N(C)C)nc1 (some centres not stated)	≤ 10
COc1c(C(C)n2nc(C)c3c(N)ncnc32)cc(Cl)c(Cl)c1C1CN(C[C@H](C)O)C1 (some centres not stated)	≤ 10
COc1c(C(C)n2nc(C)c3c(N)ncnc32)cc(Cl)c(C)c1C1CN(C(C)C#N)C1 (configuration not stated)	≤ 10
COc1c(C(C)n2nc(C(F)F)c3c(N)ncnc32)cc(C#N)c(C)c1C1CN(C(C)C)C1 (configuration not stated)	≤ 10
CCOc1c(C(C)n2nc(C)c3c(N)ncnc32)cc(Cl)c(C)c1-c1ccnc(C(=O)N(C)C)c1 (configuration not stated)	≤ 10
CCOc1c(C(C)n2nc(-c3ccc(F)cc3)c3c(N)ncnc32)cc(Cl)c(C)c1-c1ccc(C(=O)N(C)C)nc1 (configuration not stated)	10 to 50
COc1c(C(C)n2nc(C)c3c(N)ncnc32)cc(Cl)c(C)c1-c1cncc(C(=O)N(C)C2CC2)c1 (configuration not stated)	≤ 10
COc1c(C(C)n2nc(C)c3c(N)ncnc32)cc(Cl)c(C)c1-c1ccnc(C(=O)NCCO)c1 (configuration not stated)	≤ 10
CCOc1c(C(C)n2nc(C)c3c(N)ncnc32)cc(Cl)c(C#N)c1C1CN(C(=O)N(C)C)C1 (configuration not stated)	≤ 10
CCOc1c(C(C)n2nc(-c3ccc(C(=O)NC)nc3)c3c(N)ncnc32)cc(Cl)c(C)c1-c1ccc(C(=O)N(C)C)nc1 (configuration not stated)	≤ 10
CCOc1c(C(C)n2nc(C(F)F)c3c(N)ncnc32)cc(Cl)c(F)c1C1CN(CCO)C1 (configuration not stated)	≤ 10
COc1c(C(C)n2nc(C)c3c(N)nccc32)cc(Cl)c(C)c1-c1ccc(C(=O)N(C)C)nc1 (configuration not stated)	50 to 200
CCOc1c(C(C)n2nc(-c3ccncc3)c3c(N)ncnc32)cc(Cl)c(C)c1-c1ccc(C(=O)N(C)C)nc1 (configuration not stated)	≤ 10
COc1c(C(C)n2nc(C)c3c(N)ncnc32)cc(Cl)c(C)c1C1CN(C2COC2)C1 (configuration not stated)	≤ 10
COc1c(C(C)n2nc(C)c3c(N)ncnc32)cc(Cl)c(C#N)c1C1CNC1 (configuration not stated)	≤ 10
CCOc1c(C(C)n2nc(C)c3c(N)ncnc32)cc(Cl)c(C#N)c1C1CN(C(COC)COC)C1 (configuration not stated)	≤ 10
CCOc1c(C(C)n2nc(C)c3c(N)ncnc32)cc(Cl)c(C#N)c1C1CN(CC2CCOCC2)C1 (configuration not stated)	≤ 10
CCOc1c(C(C)n2nc(C)c3c(N)ncnc32)cc(Cl)c(C#N)c1C1CN(CC#N)C1 (configuration not stated)	≤ 10
COc1c(C(C)n2nc(C)c3c(N)ncnc32)cc(Cl)c(C)c1C1CN([C@@H](C)CO)C1 (some centres not stated)	≤ 10
COc1c(C(C)n2nc(C)c3c(N)ncnc32)cc(Cl)c(C#N)c1C1CN(C(=O)OC(C)C)C1 (configuration not stated)	≤ 10
COc1c(C(C)n2ccc(=O)c3c(N)ncnc32)cc(Cl)c(C)c1-c1cncc(S(C)(=O)=O)c1 (configuration not stated)	≤ 10

Structure (SMILES)	IC50 [nM]
CCOc1c(C(C)n2nc(CF)c3c(N)ncnc32)cc(Cl)c(C)c1-c1ccc(C(=O)N(C)C)nc1 (configuration not stated)	≤ 10
COc1c(C(C)n2nc(C(F)F)c3c(N)ncnc32)cc(C#N)c(C)c1C1CN(C[C@@H](C)O)C1 (some centres not stated)	≤ 10
COc1c(C(C)n2nc(C(F)F)c3c(N)ncnc32)cc(Cl)c(F)c1C1CN(C(C)C)C1 (configuration not stated)	≤ 10
CCOc1c(C(C)n2nc(C)c3c(N)ncnc32)cc(Cl)c(C#N)c1C1CN(CC)C1 (configuration not stated)	≤ 10
COc1c(C(C)n2ccc(=O)c3c(N)ncnc32)cc(Cl)c(C)c1-c1ccc(C(=O)N(C)C)nc1 (configuration not stated)	≤ 10
CCOc1c(C(C)n2nc(-c3cnn(C)c3)c3c(N)ncnc32)cc(Cl)c(C)c1-c1ccc(C(=O)N(C)C)nc1 (configuration not stated)	≤ 10
COc1c(C(C)n2nc(C(F)F)c3c(N)ncnc32)cc(Cl)c(F)c1C1CN(C[C@H](C)O)C1 (some centres not stated)	≤ 10
CCOc1c(C(C)n2nc(C)c3c(N)ncnc32)cc(Cl)c(C#N)c1C1CN(CC(F)(F)F)C1 (configuration not stated)	≤ 10
CCOc1c(C(C)n2nc(C)c3c(N)ncnc32)cc(Cl)c(C#N)c1C1CN(C(=O)C2CC2)C1 (configuration not stated)	≤ 10
CCOc1c(C(C)n2nc(C)c3c(N)ncnc32)cc(Cl)c(C#N)c1C1CN(S(=O)(=O)C(C)C)C1 (configuration not stated)	≤ 10
COc1c(C(C)n2nc(C)c3c(N)ncnc32)cc(Cl)c(C#N)c1C1CN(C2CCOC2)C1 (configuration not stated)	≤ 10
COc1c(C(C)n2nc(-c3cnn(C)c3)c3c(N)ncnc32)cc(Cl)c(C)c1C1CN(CC#N)C1 (configuration not stated)	≤ 10
CCOc1c(C(C)n2nc(C)c3c(N)ncnc32)cc(Cl)c(C)c1-c1cncc(S(C)(=O)=O)c1 (configuration not stated)	≤ 10
COc1c(C(C)n2nc(C)c3c(N)ncnc32)cc(Cl)c(C)c1-c1cncc(C(=O)N(C)C)c1 (configuration not stated)	≤ 10
CCOc1c(C(C)n2nc(C)c3c(N)ncnc32)cc(Cl)c(C#N)c1C1CN(C(C)C)C1 (configuration not stated)	≤ 10
COc1c(C(C)n2nc(C(F)F)c3c(N)ncnc32)cc(Cl)c(C)c1-c1ccc(C(=O)N(C)C)nc1 (configuration not stated)	≤ 10
CCOc1c(C(C)n2nc(C)c3c(N)ncnc32)cc(Cl)c(C#N)c1-c1ccc(C(C)(C)O)nc1 (configuration not stated)	≤ 10
CCOc1c(C(C)n2nc(C)c3c(N)ncnc32)cc(C)c(C#N)c1C1CN(C(=O)C(C)(C)O)C1 (configuration not stated)	≤ 10
COc1c(C(C)n2nc(C)c3c(N)ncnc32)cc(Cl)c(C)c1C1CN(CC#N)C1 (configuration not stated)	≤ 10
CCOc1c(C(C)n2nc(C)c3c(N)ncnc32)cc(Cl)c(C#N)c1C1CN(C(C)CO)C1 (configuration not stated)	≤ 10
CCOc1c(C(C)n2ccc(=O)c3c(N)ncnc32)cc(Cl)c(C)c1C1CN(C(C)C)C1 (configuration not stated)	≤ 10
COc1c(C(C)n2nc(C)c3c(N)ncnc32)cc(Cl)c(C#N)c1C1CN(C(=O)N(C)C)C1 (configuration not stated)	≤ 10

Structure (SMILES)	IC50 [nM]
CCOc1c(C(C)n2nc(C)c3c(N)ncnc32)cc(C)c(C#N)c1-c1ccnc(S(C)(=O)=O)c1 (configuration not stated)	≤ 10
COc1c(C(C)n2nc(C)c3c(N)ncnc32)cc(Cl)c(C)c1C1CCN(CC(C)(C)O)CC1 (configuration not stated)	≤ 10
COc1c(C(C)n2nc(C(F)F)c3c(N)ncnc32)cc(C#N)c(C)c1C1CN(CC(C)(C)O)C1 (configuration not stated)	≤ 10
COc1c(C(C)n2nc(C)c3c(N)ncnc32)cc(Cl)c(F)c1C1CN(C[C@@H](C)O)C1 (some centres not stated)	≤ 10
CCC(=O)N1CC(c2c(C)c(Cl)cc(C(C)n3nc(C)c4c(N)ncnc43)c2OC)C1 (configuration not stated)	≤ 10
COc1c(C(C)n2nc(C)c3c(N)ncnc32)cc(Cl)c(C)c1-c1cnn(CCN(C)C)c1 (configuration not stated)	≤ 10
COc1c(C(C)n2nc(C)c3c(N)ncnc32)cc(Cl)c(C#N)c1C1CN(C)C1 (configuration not stated)	≤ 10
COc1c(C(C)n2nc(C)c3c(N)ncnc32)cc(Cl)c(C#N)c1C1CN(CC(C)(C)O)C1 (configuration not stated)	≤ 10
CCOc1c(C(C)n2nc(C(F)F)c3c(N)ncnc32)cc(Cl)c(F)c1C1CN(C[C@@H](C)O)C1 (some centres not stated)	≤ 10
COc1c(C(C)n2nc(C)c3c(N)ncnc32)cc(Cl)c(C)c1C1CN(C(=O)[C@H](C)O)C1 (some centres not stated)	≤ 10
CCOc1c(C(C)n2nc(-c3cnc(N)nc3)c3c(N)ncnc32)cc(Cl)c(C)c1-c1ccc(C(=O)N(C)C)nc1 (configuration not stated)	≤ 10
COc1c(C(C)n2nc(C)c3c(N)ncnc32)cc(Cl)c(Cl)c1C1CN(CCO)C1 (configuration not stated)	≤ 10
CNC(=O)[C@H](C)N1CC(c2c(C)c(C#N)cc(C(C)n3nc(C(F)F)c4c(N)ncnc43)c2OC)C1 (some centres not stated)	≤ 10
COc1c(C(C)n2nc(C)c3c(N)ncnc32)cc(Cl)c(C#N)c1C1CN(C(=O)C(C)C)C1 (configuration not stated)	≤ 10
COc1c(C(C)n2nc(C)c3c(N)ncnc32)cc(Cl)c(C)c1C1CN(C(=O)c2cn[nH]c2)C1 (configuration not stated)	≤ 10
COc1c(C(C)n2nc(C(F)F)c3c(N)ncnc32)cc(C#N)c(C)c1C1CN(CC(F)F)C1 (configuration not stated)	≤ 10
COc1c(C(C)n2nc(C)c3c(N)ncnc32)cc(Cl)c(C)c1-c1ccnc(C(=O)N(C)C)c1 (configuration not stated)	≤ 10
COc1c(C(C)n2ccc(=O)c3c(N)ncnc32)cc(Cl)c(C)c1-c1cccnc1 (configuration not stated)	≤ 10
COc1c(C(C)n2nc(C)c3c(N)ncnc32)cc(Cl)c(C)c1C1CN(CC2CC2)C1 (configuration not stated)	≤ 10
CCOc1c(C(C)n2nc(C)c3c(N)ncnc32)cc(C)c(C#N)c1C1CN(C(C)C)C1 (configuration not stated)	≤ 10
CCOc1c(C(C)n2nc(C3CC3)c3c(N)ncnc32)cc(Cl)c(C)c1-c1ccc(C(=O)N(C)C)nc1 (configuration not stated)	≤ 10
COc1c(C(C)n2nc(C)c3c(N)ncnc32)cc(Cl)c(C#N)c1C1CN(C(N)=O)C1 (configuration not stated)	≤ 10

Structure (SMILES)	IC50 [nM]
COc1c(C(C)n2nc(C)c3c(N)ncnc32)cc(Cl)c(Cl)c1C1CN(CC#N)C1 (configuration not stated)	≤ 10
CCOc1c(C(C)n2nc(C)c3c(N)ncnc32)cc(Cl)c(C)c1C1CN(C(=O)c2cnn(C)c2)C1 (configuration not stated)	≤ 10
CNC(=O)[C@@H](C)N1CC(c2c(C)c(Cl)cc(C(C)n3nc(C)c4c(N)ncnc43)c2OC)C1 (some centres not stated)	≤ 10
COc1c(C(C)n2nc(C)c3c(N)ncnc32)cc(Cl)c(C#N)c1C1CN(C2CCOCC2)C1 (configuration not stated)	≤ 10
COc1c(C(C)n2ccc(=O)c3c(N)ncnc32)cc(Cl)c(C)c1-c1cccc(S(=O)(=O)N(C)C)c1 (configuration not stated)	≤ 10
COc1c(C(C)n2nc(C)c3c(N)ncnc32)cc(Cl)c(C)c1C1CN(C(=O)C2(O)CC2)C1 (configuration not stated)	≤ 10
COc1c(C(C)n2ncc3c(N)ncnc32)cc(Cl)c(C)c1-c1ccnc(C(=O)N(C)C)c1 (configuration not stated)	10 to 50
CCOc1c(C(C)n2nc(C)c3c(N)ncnc32)cc(Cl)c(C#N)c1C1CN(C)C1 (configuration not stated)	≤ 10
CCOc1c(C(C)n2nc(-c3ccc(C(=O)N(C)C)nc3)c3c(N)ncnc32)cc(Cl)c(C)c1-c1ccc(C(=O)N(C)C)nc1 (configuration not stated)	10 to 50
COc1c(C(C)n2nc(C)c3c(N)ncnc32)cc(C)c(C#N)c1C1CN(C[C@H](C)O)C1 (some centres not stated)	≤ 10
COc1c(C(C)n2ncc3c(N)ncnc32)cc(Cl)c(C)c1-c1ccnc(C(=O)NCCO)c1 (configuration not stated)	50 to 200
COc1c(C(C)n2nc(C)c3c(N)ncnc32)cc(Cl)c(C)c1C1CN(CC(N)=O)C1 (configuration not stated)	≤ 10
COc1c(C(C)n2nc(C)c3c(N)ncnc32)cc(Cl)c(C#N)c1C1CN(C[C@@H](C)O)C1 (some centres not stated)	≤ 10
CCOc1c(C(C)n2nc(C)c3c(N)ncnc32)cc(Cl)c(C#N)c1C1CN(C(=O)C(C)(C)O)C1 (configuration not stated)	≤ 10
COC(=O)N1CC(c2c(C#N)c(Cl)cc(C(C)n3nc(C)c4c(N)ncnc43)c2OC)C1 (configuration not stated)	≤ 10
COc1c(C(C)n2nc(C)c3c(N)ncnc32)cc(Cl)c(C)c1C1CN(C)C1 (configuration not stated)	≤ 10
CCN1CC(c2c(Cl)c(Cl)cc(C(C)n3nc(C)c4c(N)ncnc43)c2OC)C1 (configuration not stated)	≤ 10
CCOc1c(C(C)n2nc(C)c3c(N)ncnc32)cc(Cl)c(C#N)c1-c1cncc(C(=O)NC)c1 (configuration not stated)	≤ 10
CCOc1c(C(C)n2nc(C)c3c(N)ncnc32)cc(Cl)c(F)c1C1CN(C(C)C)C1 (configuration not stated)	≤ 10
CCOc1c(C(C)n2nc(-c3cnn(CCO)c3)c3c(N)ncnc32)cc(Cl)c(C)c1-c1ccc(C(=O)N(C)C)nc1 (configuration not stated)	≤ 10
COc1c(C(C)n2nc(C)c3c(N)ncnc32)cc(Cl)c(F)c1C1CN(C)C1 (configuration not stated)	≤ 10
